{
  "source": "patent EP1982595A1",
  "about": "“Insecticidal derivatives of substituted aminoheterocycles” (Bayer CropScience AG, priority 2007, dated 2008)",
  "key": {"[1]": {"assay": "logP (acidic) / lgP (HCOOH), phys. data", "format": "physicochemical", "details": "for logP: acidic; for lgP (HCOOH): preparation examples, b176 prints logP (HCOOH)"}, "Myzus persicae": {"test_system": "Myzus persicae", "assay": "Myzus persicae - test (spray application)", "format": "in vivo", "details": "read-out: activity (mortality in %)", "description": "Myzus persicae - test; (spray application)\n(§1) To produce a suitable preparation of active compound, 1 part by weight of active compound is mixed with the stated amount of solvent and emulsifier, and the concentrate is diluted with emulsifier-containing water to the desired concentration.\nChinese cabbage (Brassica pekinesis) leaf-disks infected with all instars of the green peach aphid (Myzus persicae), are sprayed with a preparation of the active ingredient at the desired concentration.\nAfter the specified period of time, mortality in % is determined, 100% means that all aphids have been killed; 0% means that none of the aphids have been killed, […]"}, "Tetranychus urticae": {"test_system": "Tetranychus urticae", "assay": "Tetranychus urticae - test; OP-resistant (spray application)", "format": "in vivo", "details": "application rate of 100 g/ha, French bean, all stages", "description": "Tetranychus urticae - test; OP-resistant (spray application)\nas §1\nFrench bean (Phaseolus vulgaris) which are heavily infested with all stages of the two spotted spidermite (Tetranychus urticae), are sprayed with a preparation of the active ingredient at the desired concentration.\nAfter the specified period of time, mortality in % is determined, 100% means that all spider mites have been killed and 0% means that none of the spider mites have been killed."}, "Phaedon cochleariae": {"test_system": "Phaedon cochleariae", "assay": "Phaedon cochleariae - test (spray application)", "format": "in vivo", "details": "application rate of 500 g/ha, Chinese cabbage leaf-disks, mustard beetle larvae", "description": "Phaedon cochlearlae - test (spray application)\nTo produce a suitable preparation of active compound, I part by weight of active compound is mixed with the stated amount of solvent and emulsifier, and the concentrate is diluted with emulsifier-containing water to the desired concentration.\nChinese cabbage (Brassica pekinesis) leaf-disks are treated by being sprayed with the preparation of the active compound of the desired concentration and are, after drying, infested with mustard beetle larvae (Phaedon cochleariae).\nAfter the specified period of time, mortality in % is determined, 100 % means that all the beetle larvae have been killed; 0 % means that none of the beetle larvae have been killed."}, "[2]": {"details": "Table I-1, read-out: Phys. data = logP (acidic)"}, "[3]": {"details": "application rate of 500 g/ha, spray application, Chinese cabbage leaf-disks, all instars of the green peach aphid"}},
  "note": "Like-named read-outs stand apart in the source and are kept apart here.",
  "data": [
    {"smiles": "S=C(NCc1ccccc1)N1CCOC1=NC1CCc2ccccc21", "note": "(centres unmarked) [1-1]", "values": [
      {"measurement": "logP", "setting": "[1]; [2]", "value": 4.46},
      {"measurement": "mortality at 500 g/ha", "setting": "Myzus persicae; [3]", "value": "≥ 80", "unit": "%"}
    ]},
    {"smiles": "S=C(NCc1ccccc1)N1CCOC1=N[C@H]1CCc2ccccc21", "note": "[1-2, N-benzyl-2-[(1S)-2,3-dihydro-1H-inden-1-ylimino]-1,3-oxazolidiner3-carbothioamide]", "values": [
      {"measurement": "logP", "setting": "[1]; [2]", "value": 4.46},
      {"measurement": "lgP (HCOOH)", "setting": "[1]", "value": 4.46},
      {"measurement": "mortality at 500 g/ha", "setting": "Myzus persicae; [3]", "value": "≥ 80", "unit": "%"},
      {"measurement": "mortality at 100 g/ha", "setting": "Tetranychus urticae", "value": "≥ 80", "unit": "%"}
    ]},
    {"smiles": "S=C(NCc1ccc(Cl)cc1)N1CCOC1=N[C@H]1CCc2ccccc21", "note": "[1-19]", "values": [
      {"measurement": "logP", "setting": "[1]; [2]", "value": 5.02},
      {"measurement": "mortality at 500 g/ha", "setting": "Myzus persicae; [3]", "value": "≥ 80", "unit": "%"}
    ]},
    {"smiles": "S=C(NCc1cccc(Cl)c1)N1CCOC1=N[C@H]1CCc2ccccc21", "note": "[1-20]", "values": [
      {"measurement": "logP", "setting": "[1]; [2]", "value": 4.97},
      {"measurement": "mortality at 500 g/ha", "setting": "Myzus persicae; [3]", "value": "≥ 80", "unit": "%"}
    ]},
    {"smiles": "S=C(NCc1ccccc1Cl)N1CCOC1=N[C@H]1CCc2ccccc21", "note": "[1-21]", "values": [
      {"measurement": "logP", "setting": "[1]; [2]", "value": 4.97},
      {"measurement": "mortality at 500 g/ha", "setting": "Myzus persicae; [3]", "value": "≥ 80", "unit": "%"}
    ]},
    {"smiles": "S=C(NCc1ccc2c(c1)OCO2)N1CCOC1=N[C@H]1CCc2ccccc21", "note": "[1-22]", "values": [
      {"measurement": "logP", "setting": "[1]; [2]", "value": 4.11},
      {"measurement": "mortality at 500 g/ha", "setting": "Myzus persicae; [3]", "value": "≥ 80", "unit": "%"},
      {"measurement": "mortality at 500 g/ha", "setting": "Phaedon cochleariae", "value": "≥ 80", "unit": "%"}
    ]},
    {"smiles": "Cc1ccc(CNC(=S)N2CCOC2=N[C@H]2CCc3ccccc32)cc1", "note": "[1-23]", "values": [
      {"measurement": "logP", "setting": "[1]; [2]", "value": 4.91},
      {"measurement": "mortality at 500 g/ha", "setting": "Myzus persicae; [3]", "value": "≥ 80", "unit": "%"}
    ]},
    {"smiles": "Fc1ccc(CNC(=S)N2CCOC2=N[C@H]2CCc3ccccc32)cc1", "note": "[1-24]", "values": [
      {"measurement": "logP", "setting": "[1]; [2]", "value": 4.51},
      {"measurement": "mortality at 500 g/ha", "setting": "Myzus persicae; [3]", "value": "≥ 80", "unit": "%"}
    ]},
    {"smiles": "COc1ccc(CNC(=S)N2CCOC2=N[C@H]2CCc3ccccc32)cc1", "note": "[1-25]", "values": [
      {"measurement": "logP", "setting": "[1]; [2]", "value": 4.28},
      {"measurement": "mortality at 500 g/ha", "setting": "Myzus persicae; [3]", "value": "≥ 80", "unit": "%"}
    ]},
    {"smiles": "COc1ccc(CNC(=S)N2CCOC2=N[C@H]2CCc3ccccc32)cc1OC", "note": "[1-26]", "values": [
      {"measurement": "logP", "setting": "[1]; [2]", "value": 3.8},
      {"measurement": "mortality at 500 g/ha", "setting": "Myzus persicae; [3]", "value": "≥ 80", "unit": "%"}
    ]},
    {"smiles": "S=C(NCc1ccc(Cl)cc1Cl)N1CCOC1=N[C@H]1CCc2ccccc21", "note": "[1-27]", "values": [
      {"measurement": "logP", "setting": "[1]; [2]", "value": 5.65},
      {"measurement": "mortality at 500 g/ha", "setting": "Myzus persicae; [3]", "value": "≥ 80", "unit": "%"},
      {"measurement": "mortality at 500 g/ha", "setting": "Phaedon cochleariae", "value": "≥ 80", "unit": "%"}
    ]},
    {"smiles": "CC(NC(=S)N1CCOC1=N[C@H]1CCc2ccccc21)c1ccccc1", "note": "(some centres unmarked) [1-29]", "values": [
      {"measurement": "logP", "setting": "[1]; [2]", "value": 4.85}
    ]},
    {"smiles": "CC(NC(=S)N1CCOC1=N[C@H]1CCc2ccccc21)c1ccccc1Cl", "note": "(some centres unmarked) [1-32]", "values": [
      {"measurement": "logP", "setting": "[1]; [2]", "value": 5.31},
      {"measurement": "mortality at 500 g/ha", "setting": "Myzus persicae; [3]", "value": "≥ 80", "unit": "%"}
    ]},
    {"smiles": "CC(NC(=S)N1CCOC1=N[C@H]1CCc2ccccc21)c1ccc(Cl)cc1", "note": "(some centres unmarked) [1-34]", "values": [
      {"measurement": "logP", "setting": "[1]; [2]", "value": 5.64},
      {"measurement": "mortality at 500 g/ha", "setting": "Myzus persicae; [3]", "value": "≥ 80", "unit": "%"}
    ]},
    {"smiles": "CC(NC(=S)N1CCOC1=N[C@H]1CCc2ccccc21)c1cccc(Cl)c1", "note": "(some centres unmarked) [1-35]", "values": [
      {"measurement": "logP", "setting": "[1]; [2]", "value": 5.31},
      {"measurement": "mortality at 500 g/ha", "setting": "Myzus persicae; [3]", "value": "≥ 80", "unit": "%"},
      {"measurement": "mortality at 500 g/ha", "setting": "Phaedon cochleariae", "value": "≥ 80", "unit": "%"}
    ]},
    {"smiles": "CC(NC(=S)N1CCOC1=NC1CCc2ccccc21)c1ccc(F)cc1", "note": "(centres unmarked) [1-36]", "values": [
      {"measurement": "logP", "setting": "[1]; [2]", "value": 4.91},
      {"measurement": "mortality at 500 g/ha", "setting": "Myzus persicae; [3]", "value": "≥ 80", "unit": "%"}
    ]},
    {"smiles": "S=C(NCCc1ccc(Cl)cc1)N1CCOC1=N[C@H]1CCc2ccccc21", "note": "[1-38]", "values": [
      {"measurement": "logP", "setting": "[1]; [2]", "value": 5.25},
      {"measurement": "mortality at 500 g/ha", "setting": "Myzus persicae; [3]", "value": "≥ 80", "unit": "%"}
    ]},
    {"smiles": "S=C(NCCc1cccc(Cl)c1)N1CCOC1=N[C@H]1CCc2ccccc21", "note": "[1-39]", "values": [
      {"measurement": "logP", "setting": "[1]; [2]", "value": 5.19},
      {"measurement": "mortality at 500 g/ha", "setting": "Myzus persicae; [3]", "value": "≥ 80", "unit": "%"},
      {"measurement": "mortality at 500 g/ha", "setting": "Phaedon cochleariae", "value": "≥ 80", "unit": "%"}
    ]},
    {"smiles": "S=C(NCc1ccc(Cl)nc1)N1CCOC1=N[C@H]1CCc2ccccc21", "note": "[1-40]", "values": [
      {"measurement": "logP", "setting": "[1]; [2]", "value": 4.04}
    ]},
    {"smiles": "S=C(NCc1ccncc1)N1CCOC1=N[C@H]1CCc2ccccc21", "note": "[1-43]", "values": [
      {"measurement": "logP", "setting": "[1]; [2]", "value": 1.87}
    ]},
    {"smiles": "S=C(NCc1cccnc1)N1CCOC1=N[C@H]1CCc2ccccc21", "note": "[1-44]", "values": [
      {"measurement": "logP", "setting": "[1]; [2]", "value": 2.17},
      {"measurement": "mortality at 500 g/ha", "setting": "Myzus persicae; [3]", "value": "≥ 80", "unit": "%"}
    ]},
    {"smiles": "S=C(NCc1ccco1)N1CCOC1=N[C@H]1CCc2ccccc21", "note": "[1-45]", "values": [
      {"measurement": "logP", "setting": "[1]; [2]", "value": 4.17}
    ]},
    {"smiles": "C=CCNC(=S)N1CCOC1=NC1CCc2ccccc21", "note": "(centres unmarked) [1-47]", "values": [
      {"measurement": "logP", "setting": "[1]; [2]", "value": 3.85},
      {"measurement": "mortality at 500 g/ha", "setting": "Myzus persicae; [3]", "value": "≥ 80", "unit": "%"}
    ]},
    {"smiles": "C=CCNC(=O)N1CCOC1=NC1CCc2ccccc21", "note": "(centres unmarked) [1-48]", "values": [
      {"measurement": "logP", "setting": "[1]; [2]", "value": 3.85}
    ]},
    {"smiles": "S=C(NCc1ncccn1)N1CCOC1=N[C@H]1CCc2ccccc21", "note": "[1-71]", "values": [
      {"measurement": "logP", "setting": "[1]; [2]", "value": 2.92}
    ]},
    {"smiles": "CC(C)=CCNC(=S)N1CCOC1=N[C@H]1CCc2ccccc21", "note": "[1-72]", "values": [
      {"measurement": "logP", "setting": "[1]; [2]", "value": 4.78}
    ]},
    {"smiles": "CC(NC(=S)N1CCSC1=NC1CCc2c(F)cccc21)c1ccccc1", "note": "(centres unmarked) [2-31, 2-[aza(4-fluorindanyl)-methylene](1,3-thiazolidine-3-yl)(alphamethylbenzylamino)methane-1-thione]", "values": [
      {"measurement": "Phys. data", "setting": "[1]; Table I-2, key logP (acidic) is printed only in the head of Table I-1", "value": 5.47},
      {"measurement": "logP", "setting": "[1]; preparation example 3, text, read-out: logP (acidic)", "value": 5.47}
    ]},
    {"smiles": "S=C(NCc1ccccc1)N1CCOC1=N[C@H]1CCCc2ccccc21", "note": "[3-2, N-benzyl-2-[(1S)-1,2,3,4-tetrahydronaphthaline-1-ylimino]-1,3-oxazolidine-3-carbothioamide]", "values": [
      {"measurement": "Phys. data", "setting": "[1]; Table I-3, logP (HCOOH), i.e. acidic conditions", "value": 4.67},
      {"measurement": "lgP (HCOOH)", "setting": "[1]", "value": 4.67},
      {"measurement": "mortality at 500 g/ha", "setting": "Myzus persicae; in Brassica rapa", "value": "≥ 80", "unit": "%"}
    ]}
  ]
}
